Source: ChEMBL document CHEMBL2040810, “In search for new chemical entities as adenosine receptor ligands: development of agents based on benzo-γ-pyrone skeleton” (Eur J Med Chem, 2012)
pKi: −log10 of the molar value. Activity calls are given as the source filed them. The rule behind the calls is not given here.

Assays:
[1] = biological target: T1, Adenosine receptor A1 (Homo sapiens) (UniProt P30542); test: Displacement of [3H]DPCPX from human adenosine A1 receptor expressed in CHO cells at 10 uM after 60 mins by liquid scintillation counting; type: cell-based
T1 sequence (whole entry): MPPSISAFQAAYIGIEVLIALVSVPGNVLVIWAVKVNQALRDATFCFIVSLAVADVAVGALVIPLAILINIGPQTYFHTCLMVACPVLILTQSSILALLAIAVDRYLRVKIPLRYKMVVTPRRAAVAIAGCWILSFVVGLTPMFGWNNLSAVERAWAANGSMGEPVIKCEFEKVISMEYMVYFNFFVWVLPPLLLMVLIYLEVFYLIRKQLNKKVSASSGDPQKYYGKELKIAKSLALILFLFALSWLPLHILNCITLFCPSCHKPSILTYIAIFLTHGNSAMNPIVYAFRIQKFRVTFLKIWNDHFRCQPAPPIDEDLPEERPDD

[2] = biological target: T2, Adenosine receptor A3 (Homo sapiens) (UniProt P0DMS8); test: Displacement of [3H]NECA from human adenosine A3 receptor expressed in HeLa cells at 10 uM after 30 mins by liquid scintillation counting; type: cell-based
T2 sequence (whole entry): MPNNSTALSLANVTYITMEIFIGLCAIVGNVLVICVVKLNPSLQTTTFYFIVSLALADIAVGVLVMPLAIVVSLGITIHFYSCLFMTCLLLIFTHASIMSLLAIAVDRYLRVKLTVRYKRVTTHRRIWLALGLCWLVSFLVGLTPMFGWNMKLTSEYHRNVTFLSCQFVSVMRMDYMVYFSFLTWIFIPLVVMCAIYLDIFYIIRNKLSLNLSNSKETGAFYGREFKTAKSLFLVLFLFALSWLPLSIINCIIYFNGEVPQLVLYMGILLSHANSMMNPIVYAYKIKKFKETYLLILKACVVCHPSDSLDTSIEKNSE

[3] = biological target: Adenosine receptor A2a (Homo sapiens) (UniProt P29274); test: Displacement of [3H][…] from human adenosine A2A receptor expressed in HeLa cells at 10 uM after 30 mins by liquid scintillation counting; type: cell-based
Chain of Adenosine receptor A2a (Homo sapiens) (P29274 whole entry): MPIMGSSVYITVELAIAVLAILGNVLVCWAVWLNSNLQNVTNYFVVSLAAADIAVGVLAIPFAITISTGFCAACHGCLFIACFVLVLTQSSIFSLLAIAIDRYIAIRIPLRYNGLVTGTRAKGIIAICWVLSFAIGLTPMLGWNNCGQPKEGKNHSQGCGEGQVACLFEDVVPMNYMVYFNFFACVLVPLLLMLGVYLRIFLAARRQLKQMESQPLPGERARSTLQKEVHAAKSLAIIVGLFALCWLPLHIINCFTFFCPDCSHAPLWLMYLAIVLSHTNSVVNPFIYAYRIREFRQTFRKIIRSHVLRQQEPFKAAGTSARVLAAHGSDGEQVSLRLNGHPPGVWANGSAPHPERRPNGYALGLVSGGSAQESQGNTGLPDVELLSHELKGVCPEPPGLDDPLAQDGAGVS

[4] = biological target: T3, Adenosine receptor A2b (Homo sapiens) (UniProt P29275); test: Displacement of [3H]DPCPX from human adenosine A2B receptor expressed in HEK293 cells at 10 uM after 30 mins by liquid scintillation counting; type: cell-based
T3 sequence (whole entry): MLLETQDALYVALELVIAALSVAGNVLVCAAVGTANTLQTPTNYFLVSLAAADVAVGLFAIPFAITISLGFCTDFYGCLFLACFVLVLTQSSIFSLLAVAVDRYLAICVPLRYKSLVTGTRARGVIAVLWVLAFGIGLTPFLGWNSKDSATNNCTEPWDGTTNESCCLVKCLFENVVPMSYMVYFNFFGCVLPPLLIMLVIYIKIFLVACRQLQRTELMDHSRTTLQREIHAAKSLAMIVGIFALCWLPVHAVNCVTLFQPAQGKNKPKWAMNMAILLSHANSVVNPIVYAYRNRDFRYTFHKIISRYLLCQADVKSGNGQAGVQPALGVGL

Adenosine receptor A2b = biological target: T4, Adenosine receptor A2b (Homo sapiens, UniProt P29275); test: Displacement of [3H]DPCPX from human adenosine A2B receptor expressed in HEK293 cells after 30 mins by liquid scintillation counting; type: cell-based
T4 sequence (P29275 whole entry): T3 sequence (whole entry)

Homo sapiens = species on record: Homo sapiens; test: Selectivity ratio for human A2B adenosine receptor over human A3 adenosine receptor

Compound | Activity [1] | Activity [2] | Activity [3] | Activity [4] | pKi (Adenosine receptor A2b) | Selectivity ratio (Homo sapiens)
O=C(O)c1cc(=O)c2ccccc2o1 | Active | Active | – | – | – | –
COc1ccc(NC(=O)c2coc3ccccc3c2=O)cc1O | – | – | – | > 50% | 5.24 | –
O=C(Nc1ccc(O)cc1)c1coc2ccccc2c1=O | – | – | – | > 50% | 5.54 | –
O=C(Nc1ccccc1)c1coc2ccccc2c1=O | 3% | – | 3% | > 50% | 5.07 | 2
O=C(Nc1ccccc1)c1cc(=O)c2ccccc2o1 | Active | Active | Active | Active | – | –
COc1ccc(NC(=O)c2coc3ccccc3c2=O)cc1OC | – | – | – | > 50% | 5.19 | –

Second part, the compound after the results:

Activity [1] | Activity [2] | Activity [3] | Activity [4] | pKi (Adenosine receptor A2b) | Selectivity ratio (Homo sapiens) | Compound
Active | Active | Active | Active | – | – | COc1ccc(NC(=O)c2cc(=O)c3ccccc3o2)cc1OC
Active | Active | Active | Active | – | – | O=C(Nc1ccc(O)c(O)c1)c1cc(=O)c2ccccc2o1
Active | Active | Active | Active | – | – | COc1ccc(NC(=O)c2cc(=O)c3ccccc3o2)cc1O
Active | Active | Active | Active | – | – | O=C(Nc1ccc(O)cc1)c1cc(=O)c2ccccc2o1
– | – | – | > 50% | 5.87 | – | O=C(Nc1ccc(O)c(O)c1)c1coc2ccccc2c1=O
